{"source": "patent US12590118B2", "about": "“Salt and crystal form of steroid derivative regulator” (Shanghai Hansoh Biomedical Co., Ltd., priority 2019, dated 2026)", "key": {"[1]": {"assay": "Hygroscopicity experiment (DVS)", "assay_type": "physicochemical", "method": "The hygroscopicity of crystal forms I, II and III of the free base of Example 40 under different relative humidity conditions was investigated, so as to provide a basis for screening of the crystal form and salt of the compound, production and storage.\n10 to 15 mg of the free base of Example 40 was placed in the sample chamber of DVS. DVS was carried out, and the vapour sorption weight gain percentage of the compound at 80% RH was recorded at the same time."}, "[2]": {"assay": "Solid stability experiment (total impurities)", "assay_type": "physicochemical", "method": "The physicochemical stability of candidate crystal forms I, II and III of the free base of Example 40 under influencing factors such as high temperature, high humidity and strong light was investigated, so as to provide a basis for the production and storage of the compound.\nThe related substance change of the free base was calculated by chromatographic peak area normalization method."}, "[3]": {"target": "T1, human GABAA receptor α1, β2 and γ2 subunit (HEK293T cell line) (Homo sapiens, UniProt P14867+P47870)", "T1 construct": "expressed in transfected cells", "T1 sequence (P14867 28-456)": "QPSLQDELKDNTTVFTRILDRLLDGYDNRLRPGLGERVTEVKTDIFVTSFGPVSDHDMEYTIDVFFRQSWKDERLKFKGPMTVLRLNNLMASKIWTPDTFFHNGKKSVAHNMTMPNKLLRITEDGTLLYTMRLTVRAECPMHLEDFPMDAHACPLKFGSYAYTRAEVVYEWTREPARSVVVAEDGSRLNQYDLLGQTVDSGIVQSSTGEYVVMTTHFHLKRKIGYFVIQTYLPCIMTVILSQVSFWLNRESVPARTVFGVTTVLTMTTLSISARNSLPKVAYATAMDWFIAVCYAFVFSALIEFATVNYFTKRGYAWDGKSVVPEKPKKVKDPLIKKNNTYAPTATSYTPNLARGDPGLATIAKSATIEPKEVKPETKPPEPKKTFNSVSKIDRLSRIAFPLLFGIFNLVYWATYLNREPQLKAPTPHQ", "T1 sequence (P47870 25-512 limits assumed)": "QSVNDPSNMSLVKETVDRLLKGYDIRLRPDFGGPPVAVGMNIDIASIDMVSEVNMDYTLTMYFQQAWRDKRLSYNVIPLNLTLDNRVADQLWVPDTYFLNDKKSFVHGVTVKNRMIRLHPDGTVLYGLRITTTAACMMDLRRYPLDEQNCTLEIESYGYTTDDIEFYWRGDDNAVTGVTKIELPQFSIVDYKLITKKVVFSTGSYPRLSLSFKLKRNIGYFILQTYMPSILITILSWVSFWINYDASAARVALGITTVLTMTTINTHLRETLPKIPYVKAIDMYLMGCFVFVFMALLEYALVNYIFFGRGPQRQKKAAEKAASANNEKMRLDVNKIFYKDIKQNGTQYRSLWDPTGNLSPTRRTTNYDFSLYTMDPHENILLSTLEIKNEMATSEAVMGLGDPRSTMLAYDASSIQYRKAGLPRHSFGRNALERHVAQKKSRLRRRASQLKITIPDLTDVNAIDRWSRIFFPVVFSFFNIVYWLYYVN", "T1 sequence (P18507 40-475 partner)": "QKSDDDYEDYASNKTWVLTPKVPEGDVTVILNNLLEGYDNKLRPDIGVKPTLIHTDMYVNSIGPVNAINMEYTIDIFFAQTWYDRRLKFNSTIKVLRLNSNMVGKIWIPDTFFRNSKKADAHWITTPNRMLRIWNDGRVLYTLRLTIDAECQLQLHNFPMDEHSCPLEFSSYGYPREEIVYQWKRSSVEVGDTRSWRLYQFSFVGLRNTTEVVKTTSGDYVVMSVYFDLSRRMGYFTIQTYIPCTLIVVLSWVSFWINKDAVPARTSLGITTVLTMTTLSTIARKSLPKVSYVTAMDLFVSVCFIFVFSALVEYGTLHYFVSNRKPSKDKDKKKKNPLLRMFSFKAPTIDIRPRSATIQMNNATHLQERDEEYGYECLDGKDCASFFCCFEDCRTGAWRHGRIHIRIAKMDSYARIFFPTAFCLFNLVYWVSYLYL", "assay": "Positive regulatory effect on GABAA receptor, manual patch clamp", "assay_type": "cell-based", "settings": "whole-cell current, 1 μM GABA"}}, "note": "pEC50: −log10 of the molar value.", "data": [{"smiles": "C[C@@H]1C[C@H](C(=O)Cn2ccc(C#N)n2)[C@@]2(C)CC[C@H]3[C@@H](CC[C@@H]4C[C@](C)(O)CC[C@@H]43)[C@H]12", "note": "[Crystal form I, 1-(2-((3R,5R,8R,9R,10S,13S,14S,15R,17S)-3-Hydroxy-3,13,15-trimethylhexadecahydro-1H-cyclopenta[a]phenanthren-17-yl)-2-oxoethyl)-1H-pyrazole-3-carbonitrile]", "values": [{"measurement": "hygroscopicity (in words)", "setting": "[1]; DVS", "value": "no hygroscopicity"}, {"measurement": "Hygroscopicity (25° C./80% RH)", "setting": "[1]; DVS vapour sorption weight gain at 80% RH, 25° C.", "value": 0.07, "unit": "%"}, {"measurement": "Total impurities (%)", "setting": "[2]; 50° C./75% RH Open, 5 d", "value": 0.56, "unit": "%"}, {"measurement": "Total impurities (%)", "setting": "[2]; 50° C./75% RH Open, 10 d", "value": 0.59, "unit": "%"}, {"measurement": "Total impurities (%)", "setting": "[2]; 60° C. Sealed, 5 d", "value": 0.55, "unit": "%"}, {"measurement": "Total impurities (%)", "setting": "[2]; 60° C. Sealed, 10 d", "value": 0.56, "unit": "%"}, {"measurement": "Total impurities (%)", "setting": "[2]; Initial sample, 0 d", "value": 0.59, "unit": "%"}, {"measurement": "Total impurities (%)", "setting": "[2]; Light 5k lux Sealed, 10 d", "value": 0.56, "unit": "%"}, {"measurement": "Total impurities (%)", "setting": "[2]; Light 5k lux Sealed, column printed 10 d", "value": 0.57, "unit": "%"}, {"measurement": "Total impurities (%)", "setting": "[2]; RT/90% RH Open, 5 d", "value": 0.56, "unit": "%"}, {"measurement": "Total impurities (%)", "setting": "[2]; RT/90% RH Open, column printed 5 d", "value": 0.56, "unit": "%"}, {"measurement": "change of impurities (in words)", "setting": "[2]; high temperature, high humidity and light for 10 days", "value": "the impurities did not increase"}]}, {"smiles": "C[C@@H]1C[C@H](C(=O)Cn2ccc(C#N)n2)[C@@]2(C)CC[C@H]3[C@@H](CC[C@@H]4C[C@](C)(O)CC[C@@H]43)[C@H]12", "note": "[Example 40, 1-(2-((3R,5R,8R,9R,10S,13S,14S,15R,17S)-3-Hydroxy-3,13,15-trimethylhexadecahydro-1H-cyclopenta[a]phenanthren-17-yl)-2-oxoethyl)-1H-pyrazole-3-carbonitrile]", "values": [{"measurement": "pEC50", "setting": "[3]", "value": 7.24}]}]}
